# ChEMBL document CHEMBL1201862, “PubChem BioAssay data set” (2004)
#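 48-hour exposure; five concentrations; linearly interpolated endpoints. At the GI50, growth is halved.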 Activity calls are given as the source filed them. Cut-off read from the data, not from the text of the source: active = GI50 up to about 1.1 µM and inactive = higher.
# What was measured:
# Assay in all cases: DTP human tumour cell line panel, 48 h
# [1] = test system: DMS-114
# [2] = test system: KM-20L2
# [3] = test system: HOP-18
# [4] = test system: DLD-1
# [5] = test system: M19-MEL
# [6] = test system: DMS-273
# [7] = test system: LXFL 529
# [8] = test system: XF498
# [9] = test system: RXF 631
SMILES,GI50 [1],GI50 [2],GI50 [3],GI50 [4],GI50 [5],GI50 [6],GI50 [7],GI50 [8],GI50 [9]
Nc1nc(Cl)nc2c1ncn2C1CC(O)C(CO)O1 (stereo unspecified),0.228 µM (active),2.42 µM (inactive),> 100 µM (inactive),> 100 µM (inactive),> 30.3 µM (inactive),3.89 µM (inactive),–,–,–
O=Cc1ccccc1CCn1c(=O)c2cc3c(=O)n(CCc4ccccc4C=O)c(=O)c3cc2c1=O,> 100 µM (inactive),–,–,> 100 µM (inactive),–,> 100 µM (inactive),> 100 µM (inactive),–,–
O=C1CCCN1CCC/N=c1/cc2n(-c3ccc(Cl)cc3)c3ccccc3nc-2cc1Nc1ccc(Cl)cc1,6.38 µM (inactive),2.42 µM (inactive),24.8 µM (inactive),4.81 µM (inactive),2.32 µM (inactive),15.6 µM (inactive),–,19.7 µM (inactive),–
C=C1C(=O)O[C@@H]2[C@H](O)[C@@H](C)[C@@H]3C=CC(=O)[C@@]3(C)[C@@H](OC(=O)/C(C)=C/C)[C@H]12,0.498 µM (active),1.75 µM (inactive),1.9 µM (inactive),0.728 µM (active),0.363 µM (active),0.451 µM (active),–,0.471 µM (active),–
CC(C)(C)c1ccc2c(c1)OP1(Oc3c(Cl)cc(Cl)c4cccnc34)(O2)Oc2ccc(C(C)(C)C)cc2O1,2.62 µM (inactive),4.92 µM (inactive),9.98 µM (inactive),5.2 µM (inactive),3.12 µM (inactive),5.04 µM (inactive),–,13.5 µM (inactive),–
COc1cc2c(cc1O)N=C[C@@H]1CC[C@@H](O)N1C2=O.COc1cc2c(cc1O)N=C[C@@H]1CC[C@H](O)N1C2=O,0.522 µM (active),1.72 µM (inactive),0.863 µM (active),1 µM (active),1.2 µM (inactive),5.48 µM (inactive),–,0.48 µM (active),–
O=S(=O)(N/N=C/c1ccc(Cl)cc1Cl)c1ccccc1,29.4 µM (inactive),85.1 µM (inactive),57.5 µM (inactive),> 100 µM (inactive),> 100 µM (inactive),66.7 µM (inactive),74.3 µM (inactive),78.7 µM (inactive),61.1 µM (inactive)
C/C(CC(=O)Nc1ccccc1)=N\NC(N)=S,> 100 µM (inactive),> 100 µM (inactive),–,> 100 µM (inactive),> 100 µM (inactive),> 100 µM (inactive),> 100 µM (inactive),> 100 µM (inactive),–
Cc1cc(O)nc(NN2C(Cl)C(=O)C2c2cccc(Cl)c2)n1 (stereo unspecified),22.2 µM (inactive),32.9 µM (inactive),24 µM (inactive),–,33.9 µM (inactive),17.1 µM (inactive),> 10 µM (inactive),–,–
CCCCCCCCCCCCSC(=S)c1c(C)[nH]n(CCCCCCCCCCCC)c1=O,46.1 µM (inactive),73.1 µM (inactive),65 µM (inactive),> 100 µM (inactive),31.6 µM (inactive),–,67.9 µM (inactive),–,> 100 µM (inactive)
COc1cc(CCc2ccncc2)cc(OC)c1OC,> 100 µM (inactive),> 100 µM (inactive),> 100 µM (inactive),> 100 µM (inactive),> 100 µM (inactive),> 100 µM (inactive),> 100 µM (inactive),> 100 µM (inactive),> 100 µM (inactive)
